Measurements published in patent US20240385200A1, “COMPOSITIONS AND METHODS OF DETERMINING PH AND POTASSIUM CONCENTRATION IN SAMPLES” (The University of Chicago, priority 2023, published 2024).

Test system: TGN-resident K^+ channels
Conditions: UT HEK 293T cells; TEA 10 mM, 10 min; resting ~102 mM
Protocol: EE and TGN pH and [K^+] measurements were carried out using pHlicKer^EE/TGN in HEK 293T cells transfected with hMSR1 and scFv-furin respectively. For EEs, HEK 293T cells were pulsed with 250 nM pHlicKer^EE for 10 min and chased for 10 min. For TGN, HEK 293T cells were pulsed with 250 nM pHlicKer^TGN for 90 min and chased for 90 min. Cells were washed with 1×PBS three times and then imaged. For recycling endosomes, HEK 293T cells were pulsed with 250 nM pHlicKer^RE for 15 min and chased for 30 min. Cells were washed with 1×PBS three times and then imaged using a widefield microscope.
Calculating pH-corrected [K^+] in early endosomes, trans-Golgi network, and recycling endosomes. To correct for pH and obtain K^+ values, the Kd of pHlicKer in single endosomes was calculated based on the Kd calibration plot versus pH. The pH of the organelle was measured from the D/A values calibrated across pH 5.5-7.0. Donor (D) and acceptor (A) images were background subtracted by drawing a region of interest outside the cells. The D image was duplicated, and a threshold was set to create a binary mask. Background-subtracted D and A images were then multiplied with the binary mask to get processed D and A images.

CC[N+](CC)(CC)CC.[Cl-] [TEA, tetraethyl ammonium chloride]
[K+]TGN: ~73 mM
